PMC5614581, “Investigating cyclic nucleotide and cyclic dinucleotide binding to HCN channels by surface plasmon resonance” (PLoS ONE, 2017)
Changes are numbered by the printed parent chain. “Also recorded” adds a separate entry of the source. Like-named read-outs stand apart in the source and are kept apart here. One block for each compound: values may come before it.

Tests used:
[1] = target: isolated C-linker/CNBDs of HCN2 channels; details: read-out: binding affinity (SPR, ligand coupled to CM5 chip); cited from earlier work
[2] = target: isolated C-linker/CNBDs of HCN4 channels; details: read-out: binding affinity (SPR, ligand coupled to CM5 sensor); cited from earlier work
[3] = target: isolated C-linker/CNBDs of HCN2 channels; details: read-out: binding affinity (FA); cited from earlier work
[4] = target: C-linker/CNBDs of HCN4 channels; details: read-out: binding affinity (FA), cited from earlier work
[5] = tested on: full-length hHCN4 channels; details: cited from earlier work; for effect on cyclic nucleotide modulation of the channel: in the presence of cyclic nucleotides
[6] = target: T1, C-linker/CNBD of mouse HCN2 (mHCN2, residues 443–645) (Mus musculus, UniProt O88703); assay: SPR, immobilized mHCN2 C-linker/CNBD on NTA chip; details: for Kd: SPR
T1 sequence (O88703 443-645): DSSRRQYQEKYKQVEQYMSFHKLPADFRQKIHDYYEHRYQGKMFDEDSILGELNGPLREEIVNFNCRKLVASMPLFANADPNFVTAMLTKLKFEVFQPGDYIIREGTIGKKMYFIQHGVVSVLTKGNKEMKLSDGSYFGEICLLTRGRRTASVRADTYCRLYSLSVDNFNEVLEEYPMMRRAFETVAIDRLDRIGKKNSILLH
Procedure: (§1) SPR experiments were performed at 25 °C on a Biacore 4000 Instrument (GE Healthcare). C-linker/CNBDs of wild-type and L586W mutant mHCN2, and hHCN4 channels were immobilized on a NTA chip (GE Healthcare), as previously described [31, 32]. Immobilizations of the proteins were performed in HBS-P buffer (150 mM NaCl, 10 mM HEPES, 0.05% (v/v) surfactant P20, pH 7.4). First the NTA sensor surface was activated with a 1 min injection of 0.5 M NiCl2. The coupling of the Ni^2+-NTA chip surface groups with the 6-His-tagged proteins was then achieved by 2.5 min injections of the proteins at 200 nM concentrations to the chip surface. After the initial capturing, the proteins were covalently cross-linked via 20 s injections of NHS-EDC carboxyl-reactive cross-linkers to prevent protein loss from the chip surface with successive analyte and buffer injections. This was followed by 20 s injection of 1 M ethanolamine to block the remaining reactive sites. The proteins were captured at ~1000–3000 resonance units (RU; 1 RU = 1 pg of protein per mm^2). […] This spot was used as a reference surface to account for a non-specific binding to the chip surface. The binding to the reference surface was subtracted from the binding to the surfaces with immobilized proteins. In addition, the binding corresponding to blank injections (buffer only) was subtracted from the reference subtracted SPR data.
(§2) The binding experiments were performed in the running buffer (150 mM KCl, 10% Glycerol, 1 mM TCEP, 30 mM HEPES, pH 7.5). Analytes over the range of concentrations were injected in triplicates over the chip surface for 60 s at a flow rate of 30 μl /min, followed by buffer only injections. The regeneration of the surface between the analyte injections was not necessary, as the baseline returned to the pre-injection levels. In some experiments we observed a drift in the baseline. […] However, there was minimal residual binding between analyte injections, as indicated by essentially the same binding response for triplicate repeats of analyte injections at the same concentrations.
(§3) Each experiment was repeated on at least three different NTA chips.
(§4) Therefore, concentrations higher than 300 μM were excluded from the analysis. The data analysis and fitting of the plots was performed in Origin (Microcal Software, Inc). Error bars indicate the SEM. […] For each NTA chip an analyte was injected three times. Therefore, each experiment was repeated at least 3xn times. Statistical analysis was performed by using one-way ANOVA. P < 0.05 was considered statistically significant.

[7] = target: T2, C-linker/CNBD of human HCN4 (hHCN4, residues 521–723) (Homo sapiens, UniProt Q9Y3Q4); assay: SPR, immobilized hHCN4 C-linker/CNBD on NTA chip; details: for SPR binding response: analyte alone (no added cAMP), 300 μM or range up to 300 μM; for SPR binding response in the presence of cAMP: in the presence of 100 μM cAMP, analyte 300 μM or range up to 300 μM
T2 sequence (Q9Y3Q4 521-723): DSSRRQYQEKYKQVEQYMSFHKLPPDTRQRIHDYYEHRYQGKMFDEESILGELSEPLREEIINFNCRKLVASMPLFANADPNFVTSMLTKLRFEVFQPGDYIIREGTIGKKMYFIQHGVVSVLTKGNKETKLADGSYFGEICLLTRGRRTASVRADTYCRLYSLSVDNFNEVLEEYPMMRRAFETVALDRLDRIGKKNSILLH
Procedure: as §1, §2, §3, §4

[8] = target: T3, hHCN4 C-linker/CNBD (monomeric) (Homo sapiens, UniProt Q9Y3Q4); assay: ITC, 6 μM (monomeric) 6-His tagged hHCN4 C-linker/CNBD; assay type: binding; details: 6 μM C-linker/CNBD
T3 construct: human HCN4 (hHCN4, residues 521–723); made in house; host or cells: E. coli BL21 (DE3)
T3 sequence (Q9Y3Q4 521-723): T2 sequence (Q9Y3Q4 521-723)
Procedure: (§5) For ITC experiments at low concentrations of the hHCN4 C-linker/CNBD the protein was concentrated to 6 μM and dialyzed in 150 mM KCl, 1 mM TCEP, 30 mM HEPES, pH 7.5 overnight at 4°C using a Slide-A-Lyzer dialysis cassette (ThermoFisher Scientific). For ITC experiments at high concentrations of the hHCN4 C-linker/CNBD the protein was concentrated to 80 μM and dialyzed in 100 mM KCl, 1 mM TCEP, 20 mM HEPES, pH 7.0 overnight at 4°C using a Slide-A-Lyzer cassette. The protein solutions were degassed prior to each experiment. ITC titrations were performed at 25°C using the ITC200 calorimeter (Malvern Instruments Inc. Westborough, MA). […] Data analysis was performed with NITPIC and SEDFAT [34, 35] using a single-site binding model for 6 μM C-linker/CNBDs and a two independent binding site model for 80 μM C-linker/CNBDs, as used by Chow et al. [36].

[9] = target: T4, hHCN4 C-linker/CNBD (tetrameric) (Homo sapiens, UniProt Q9Y3Q4); assay: ITC, 80 μM (tetrameric) hHCN4 C-linker/CNBD after MBP tag cleavage; assay type: binding; details: 80 μM C-linker/CNBD
T4 construct: C-linker/CNBD of hHCN4 (residues 521–723); made in house; host or cells: E. coli BL21 (DE3)
T4 sequence (Q9Y3Q4 521-723): T2 sequence (Q9Y3Q4 521-723)
Procedure: as §5

[10] = target: T5, mHCN2-L586W C-linker/CNBD (Mus musculus, UniProt O88703, L586W); assay: SPR, immobilized mHCN2-L586W C-linker/CNBD on NTA chip; assay type: binding
T5 construct: mouse HCN2 (mHCN2, residues 443–645); made in house; host or cells: E. coli BL21 (DE3)
T5 sequence (O88703 443-645 L586W): T1 sequence (O88703 443-645) with L144W
Procedure: Error bars indicate the SEM. […] Statistical analysis was performed by using one-way ANOVA. P < 0.05 was considered statistically significant.

[11] = tested on: full-length HCN2 channels; details: read-out: affinity for full-length HCN2 channels, electrophysiology; cited from earlier work
[12] = target: isolated C-linker/CNBDs of HCN2 channels; details: cGMP; read-out: binding affinity (ITC); cited from earlier work
[13] = target: mHCN2-L586W C-linker/CNBDs; details: read-out: binding affinity (tryptophan fluorescence); cited from earlier work
[14] = analyte alone (no added cAMP), 300 μM
[15] = in the presence of 100 μM cAMP, analyte 300 μM

Structure (SMILES): NCCCCCCNc1nc2c(N)ncnc2n1[C@@H]1O[C@@H]2COP(=O)(O)O[C@H]2[C@H]1O [8-AHA-cAMP]
Kd [1]: 10 µM | Kd [2]: 11 µM

Structure (SMILES): Nc1ncnc2c1nc(SCCNC(=S)Nc1ccc(-c3c4ccc(=O)cc-4oc4cc(O)ccc34)c(C(=O)O)c1)n2C1OC2COP(=O)(O)OC2C1O (stereo not drawn) [8-Fluo-cAMP]
Kd [3]: 0.3 to 0.7 µM | Kd ([4]; 8-Fluo-cAMP): 0.18 to 0.28 µM

Structure (SMILES): Nc1nc2c(nc(SCCNC(=S)Nc3ccc4c(c3)C(=O)OC43c4ccc(O)cc4Oc4cc(O)ccc43)n2[C@@H]2O[C@@H]3COP(=O)(O)O[C@H]3[C@H]2O)c(=O)[nH]1 [8-Fluo-cGMP]
Kd ([4]; 8-Fluo-cGMP): 0.7 µM

SPR binding response [6, 14]: No increase in the binding response | SPR binding response ([6]; analyte alone (no added cAMP), 300 μM, listed as c-diAMP): did not detect any binding | SPR binding response in the presence of cAMP [6, 15]: No increase in the binding response | SPR binding response in the presence of cAMP ([6]; in the presence of 100 μM cAMP, analyte 300 μM, listed as c-diAMP): did not detect any binding | SPR binding response ([7]; listed as c-diAMP): did not detect any binding | SPR binding response in the presence of cAMP ([7]; listed as c-diAMP): did not detect any binding
Structure (SMILES): Nc1ncnc2c1ncn2[C@@H]1O[C@@H]2COP(=O)(O)O[C@H]3[C@@H](O)[C@H](n4cnc5c(N)ncnc54)O[C@@H]3COP(=O)(O)O[C@H]2[C@H]1O [c-di-AMP]
effect on cyclic nucleotide modulation of the channel [5]: antagonized the effect of cyclic nucleotides | SPR binding response [7]: No increase in the binding response; also recorded: did not show any cyclic dinucleotide binding | SPR binding response in the presence of cAMP [7]: No increase in the binding response; also recorded: did not show any cyclic dinucleotide binding

binding (ITC) ([8]; absence of cAMP, titrated with 300 μM ligand): no binding | binding (ITC) in the presence of cAMP ([8]; presence of 100 μM cAMP in ligand and protein solutions): no binding | binding (ITC) ([9]; absence of cAMP): no binding | binding (ITC) in the presence of cAMP ([9]; presence of 1 mM cAMP): no binding | SPR binding response [6, 14]: did not detect any binding | SPR binding response in the presence of cAMP [6, 15]: did not detect any binding | SPR binding response ([7]; listed as c-diGMP): did not detect any binding | SPR binding response in the presence of cAMP ([7]; listed as c-diGMP): did not detect any binding
Structure (SMILES): Nc1nc2c(ncn2[C@@H]2O[C@@H]3COP(=O)(O)O[C@H]4[C@@H](O)[C@H](n5cnc6c(=O)[nH]c(N)nc65)O[C@@H]4COP(=O)(O)O[C@H]3[C@H]2O)c(=O)[nH]1 [c-di-GMP]
effect on the cAMP-induced V1/2 shift ([5]; 100 μM c-di-GMP, 15 μM cAMP): completely abolishing the effect of 15 μM cAMP | IC50 ([5]; in the presence of 15 μM cAMP, read-out: apparent affinity for decreasing the cAMP-induced positive shift in V1/2): 1.8 µM | effect on cyclic nucleotide modulation of the channel [5]: antagonized the effect of cyclic nucleotides | SPR binding response [7]: No increase in the binding response; also recorded: did not show any cyclic dinucleotide binding | SPR binding response in the presence of cAMP [7]: No increase in the binding response; also recorded: did not show any cyclic dinucleotide binding

Structure (SMILES): Nc1nc2c(ncn2[C@@H]2O[C@@H]3COP(=O)(O)O[C@H]4[C@@H](O)[C@H](n5cnc6c(N)ncnc65)O[C@@H]4COP(=O)(O)O[C@@H]2[C@@H]3O)c(=O)[nH]1 [cGAMP]
effect on cyclic nucleotide modulation of the channel [5]: antagonized the effect of cyclic nucleotides | SPR binding response [6]: did not detect any binding | SPR binding response in the presence of cAMP [6]: did not detect any binding

Structure (SMILES): Nc1nc2c(ncn2[C@@H]2O[C@@H]3COP(=O)(O)O[C@H]3[C@H]2O)c(=O)[nH]1 [cGMP]
Kd ([10]; averaged over different NTA chips, for cGMP only a limit could be estimated, read-out: Kd (averaged binding affinity)): > 73.9 µM | Kd ([10]; single surface, Fig 2D, read-out: binding affinity (fit of representative dose response plot)): ≥ 70.1 µM | EC50 [11]: ~6 µM | Kd [12]: 8.5 µM | Kd [13]: 62 ± 23 µM | EC50 ([5]; cGMP, read-out: affinity for full-length hHCN4 channels, electrophysiology): 13.2 µM | Kd ([6]; read-out: Kd (averaged binding affinity), averaged over different NTA chips, 25 °C, Hill fit): 13.4 ± 2 µM | Kd ([6]; read-out: binding affinity (fit of representative dose response plot), single surface, Fig 1E): 12.3 ± 1.1 µM | affinity for hHCN4 relative to mHCN2 domains ([7]; SPR, P < 0.05 by ANOVA): about two-fold higher | SPR binding response [7]: robust response | Kd ([7]; read-out: Kd (averaged binding affinity), SPR, averaged over different NTA chips): 5.5 ± 0.9 µM | Kd ([7]; read-out: binding affinity (fit of representative dose response plot), SPR, single surface, Fig 3C): 5.6 ± 0.2 µM
